Test results reported in patent US11299485B2, “Thiophene derivative and use thereof” (FUJIMOTO CO., LTD., priority 2018, dated 2022).

Tests used:
Format in all cases: cell-based
[1] = system: TNF-α production; assay: Human TNF-α production suppression test (LPS-stimulated peripheral blood mononuclear cells, ELISA); conditions: PBMC, compound 10 μg/mL, 24 hr, control well = 100, read-out: TNF-α production suppressive rate (%)
Description: Example 50: Human TNF-α Production Suppression Test
Peripheral blood of a healthy adult was collected in a vacuum blood collection tube (Terumo, containing EDTA/2Na), and then diluted two-fold with an equal volume of OTSUKA NORMAL SALINE (Otsuka Pharmaceutical Co., Ltd.). The diluted blood was mixed with Lymphoprep (AXIS-SHIELD) in half the volume of the diluted blood, dispensed into a 15 mL conical tube, and centrifuged at room temperature for 20 min (2,100 rpm). The mononuclear cells accumulated at the interface between Lymphoprep and plasma was transferred to a 50 mL conical tube, diluted with OTSUKA NORMAL SALINE, and the mononuclear cells suspension was centrifuged at room temperature for 10 min (1,150 rpm) and then the supernatant was removed. The mononuclear cells fraction obtained as a precipitate was suspended in an appropriate amount of 10% fetal calf serum (Thermo Fisher Scientific)-containing RPMI1640 medium (Thermo Fisher Scientific, hereinafter abbreviated as medium A), and diluted as appropriate with 0.4% trypan blue solution (Sigma-Aldrich Co. LLC.). The number of viable cells was counted with a hemocytometer (ERMA INC.). It was diluted with medium A such that the value obtained was 5×10^5 cells/mL. On the other hand, 75 μL of medium A, 5 μL of 0.4 mg/mL test compound solution (DMSO solution 10-fold diluted with medium A), and 20 μL of 10 μg/mL lipopolysaccharide (Sigma-Aldrich Co. LLC.) solution (diluted with medium A) were each added in advance to the same well of a Falcon 96-well flat bottom plate (Corning Incorporated), and the above-mentioned cell suspension was dispensed at 0.1 mL/well. 5 μL of DMSO diluted 10-fold with medium A was added to the control well instead of the compound solution. After culturing at 37° C. in a 5% CO2 stream for 24 hr, the culture solution was centrifuged at 4° C., 1,000 rpm for 3 min and the supernatant was recovered. The content of TNF-α in the supernatant was measured using an ELISA kit (Peprotech) according to a conventional method. The amount of TNF-α produced in the well containing the test compound was determined with the amount of TNF-α produced in the control well as 100, and the suppression rate was calculated for each test.

[2] = system: MM.1S cells; assay: Human myeloma cell line MM.1S proliferation suppression test; conditions: MM1.S, 72 h, compound 10 μM, 3 days, WST-1 or WST-8, read-out: cell survival rate (% of control) MM.1S
Method in brief: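 Cells at 2×10^5 cells/mL in RPMI1640 + 10% FCS, mixed 1:1 with compound diluted from DMSO stock (final 10 μM) versus DMSO-only control. Cultured 3 days at 37 °C, 5% CO2; proliferation read with WST-1 or WST-8.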

[3] = system: Daudi cells; assay: Human Burkitt lymphoma cell line Daudi proliferation suppression test; conditions: 72 h, compound 10 μM, 3 days, WST-8, read-out: cell survival rate (% of control) Daudi
Method in brief: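 Daudi cells plated at 1.3×10^5 cells/mL and cultured overnight at 37° C., 5% CO2, then given test compound at final 10 μM (DMSO vehicle control). After 3 days' culture, proliferation was read by WST-8.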

[4] = system: Kasumi-7 cells; assay: Human acute lymphoblastic leukemia cell line Kasumi-7 proliferation suppression test; conditions: 72 h, compound 10 μM, 3 days, WST-8, read-out: cell survival rate (% of control) Kasumi-7
Method in brief: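 Cells seeded at 1.3×10^5 cells/mL in RPMI1640 with 20% FCS, cultured overnight at 37°C, 5% CO2, then treated with compound at 10 μM final; DMSO vehicle control. Proliferation read by WST-8 after 3 days' culture.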

| SMILES | inhibition at 10 µg/mL [1] | viability at 10 µM [2] | viability at 10 µM [3] | viability at 10 µM [4] |
| --- | --- | --- | --- | --- |
| COCc1ccc(COc2cscc2-c2cn(C3CCC(=O)NC3=O)nn2)cc1 (stereo not shown) [compound 37, 3-(4-{4-[4-(methoxymethyl)benzyloxy]thiophen-3-yl}-1H-1,2,3-triazol-1-yl)piperidine-2,6-dione] | 81% | 24% | 20% | 38% |
| C[C@@H]1CN(Cc2ccc(COc3cscc3-c3cn(C4CCC(=O)NC4=O)nn3)cc2)C[C@H](C)O1 (stereo partly drawn) [compound 38, 3-{4-[4-(4-{[(2S,6R)-2,6-dimethylmorpholino]methyl}benzyloxy)thiophen-3-yl]-1H-1,2,3-triazol-1-yl}piperidine-2,6-dione] | 89% | 24% | 7% | 23% |
| O=C1CCC(n2cc(-c3cscc3OCc3cccc(CN4CCOCC4)c3)nn2)C(=O)N1 (stereo not shown) [compound 39, 3-(4-{4-[3-(morpholinomethyl)benzyloxy]thiophen-3-yl}-1H-1,2,3-triazol-1-yl)piperidine-2,6-dione] | 81% | 26% | 30% | 36% |
| O=C1CCC(n2cc(-c3cscc3OCc3ccccc3CN3CCOCC3)nn2)C(=O)N1 (stereo not shown) [compound 40, 3-(4-{4-[2-(morpholinomethyl)benzyloxy]thiophen-3-yl}-1H-1,2,3-triazol-1-yl)piperidine-2,6-dione] | 86% | 35% | 46% | 41% |
| Cl.O=C1CCC(n2cc(-c3cscc3OCc3ccc(CN4CCCC4)cc3)nn2)C(=O)N1 (stereo not shown) [compound 41, 3-(4-{4-[4-(pyrrolidin-1-ylmethyl)benzyloxy]thiophen-3-yl}-1H-1,2,3-triazol-1-yl)piperidine-2,6-dione hydrochloride] | 93% | 32% | 24% | 26% |
| Cl.O=C1CCC(n2cc(-c3cscc3OCc3ccc(CN4CCCCC4)cc3)nn2)C(=O)N1 (stereo not shown) [compound 42, 3-(4-{4-[4-(piperidin-1-ylmethyl)benzyloxy]thiophen-3-yl}-1H-1,2,3-triazol-1-yl)piperidine-2,6-dione hydrochloride] | 96% | 27% | 17% | 26% |
| O=C1CCC(n2cc(-c3cscc3OCc3ccc(Cl)cc3)nn2)C(=O)N1 (stereo not shown) [compound 43, 3-{4-[4-(4-chlorobenzyloxy)thiophen-3-yl]-1H-1,2,3-triazol-1-yl}piperidine-2,6-dione] | 87% | 30% | 36% | 42% |
| CC(Oc1cscc1-c1cn(C2CCC(=O)NC2=O)nn1)c1ccccc1 (stereo not shown) [compound 44, 3-{4-[4-(1-phenylethoxy)thiophen-3-yl]-1H-1,2,3-triazol-1-yl}piperidine-2,6-dione] | 79% | 33% | 41% | 40% |
| Cl.O=C1CCC(n2cc(-c3cscc3OCc3ccc(CCN4CCOCC4)cc3)nn2)C(=O)N1 (stereo not shown) [compound 45, 3-(4-{4-[4-(2-morpholinoethyl)benzyloxy]thiophen-3-yl}-1H-1,2,3-triazol-1-yl)piperidine-2,6-dione hydrochloride] | 76% | 31% | 40% | 39% |
| CN(C)Cc1ccc(COc2cscc2-c2cn(C3CCC(=O)NC3=O)nn2)cc1.Cl (stereo not shown) [compound 46, 3-[4-(4-{4-[(dimethylamino)methyl]benzyloxy}thiophen-3-yl)-1H-1,2,3-triazol-1-yl]piperidine-2,6-dione hydrochloride] | 80% | 35% | 29% | 35% |
| O=C1CCC(n2cc(-c3cscc3OCc3cc4ccccc4s3)nn2)C(=O)N1 (stereo not shown) [compound 47, 3-{4-[4-(benzo[b]thiophen-2-ylmethoxy)thiophen-3-yl]-1H-1,2,3-triazol-1-yl}piperidine-2,6-dione] | 63% | 64% | 87% | 56% |
| O=C1CCC(n2nnc(-c3ccsc3)c2Br)C(=O)N1 (stereo not shown) [compound 48, 3-[5-bromo-4-(thiophen-3-yl)-1H-1,2,3-triazol-1-yl]piperidine-2,6-dione] | 51% | 85% | 80% | 95% |
| COc1cscc1-c1nnn(C2CCC(=O)NC2=O)c1I (stereo not shown) [compound 49, 3-[5-iodo-4-(4-methoxythiophen-3-yl)-1H-1,2,3-triazol-1-yl]piperidine-2,6-dione] | 79% | 48% | 42% | 56% |
